Source: article PMC9959244, “Revisiting the Solubility–Permeability Relationship with Hydrophobic Drug Umifenovir in Pluronic Solutions: Impact of pH and Co-Solvent” (Pharmaceutics, 2023)

Experiments:
[1] = Quantitative parameters of UMF solubilization by F-127 micelles (from phase solubility plots); format: physicochemical
Description: To elucidate the solubilizing potential of the micelles of F-127 towards UMF, we determined the solubilizing capacity (χ) equal the amount of UMF solubilized by one mole of F-127 using the equation given in Stephenson et al.:(2) χ=(S2−S20)/(Cpolym−cmc)=(SUMF−SUMF0)/(CF−127−cmc) where S2 and S20 are the total compound solubility at a specific polymer concentration in the solution and the intrinsic solubility, respectively, Cpolym is the polymer (F-127) concentration, cmc is the polymer critical micelle concentration, expressed in mol∙L^−1, and (Cpolym—cmc) is the concentration of the micelles. […] Solubilizing capacities were determined from the slopes of the dependences illustrated in Figure S2. […]
Micelle formation occurs above the critical micelle concentration and is accompanied by the removal of the hydrophobic tails of F-127 molecules from the aqueous surroundings, the association of monomers and the decrease of the free energy of the entire system. […] In order to quantify the apparent free energy of solubilization (transferring of the compound from the aqueous to the micellar phase) at 310.15 K, the following equation was applied:(4) ΔGS310.15K=−RT⋅lnKm/w where ΔGS310.15K is the apparent solubilization free energy, R is the universal gas constant, and Km/w is the micelle/water partition coefficient of UMF. […]

[2] = PXRD analysis of solid residuals after solubility experiments; format: physicochemical
Experimental: The powder XRD data were recorded under ambient conditions on a D2 Phaser (Bragg Brentano) diffractometer (Bruker AXS, Karlsruhe, Germany) with a copper X-ray source (λCuKα1 = 1.5406Å) and a high-resolution position-sensitive LYNXEYE XE-T detector. The samples were placed into the plate sample holders and rotated at a speed of 15 rpm during the data acquisition.
In order to trace possible transformations of the UMF base, the solid residuals left after each solubility experiment were isolated, dried under air and subjected to PXRD analysis together with the raw UMF base and UMF∙HCl∙H2O. […] Importantly, all the parameters obtained for the acidic solutions (solubility, permeability, micellization, and aggregation characteristics) refer to UMF∙HCl∙H2O, in spite of the fact that initially the UMF base was subjected to the experiments.

[3] = In vitro permeability, Franz diffusion cell; format: in vitro ADME
Experimental: The permeability coefficients of UMF were measured in a Franz diffusion cell of a vertical type (PermeGear, Inc., Hellertown, PA, USA) at 310.15 ± 0.1 K. The experimental setup is fully described and illustrated in our previous study. All the experiments were carried out with the help of a regenerated cellulose membrane with a molecular weight cut-off (MWCO) of 12–14 kDa (Standard Grade RC Dialysis Membrane, Flat Width 45 mm) pretreated with water for 30 min and dried under air. A cellulose membrane MWCO 6–8 kDa was additionally used for several experiments. The membrane effective surface area was 0.785 cm^2. It was placed between the donor (7 mL of the stock UMF solution) and acceptor (pure solvent without UMF—blank solution) chambers. In the case of the pH 2.0 donor solution, the blank solution at pH 7.4 was applied in the acceptor chamber in order to simulate the compound transfer to the blood plasma. Samples of 0.5 mL were withdrawn every 30 min from the acceptor chamber and replaced with an equal amount of pure buffer pH 7.4. The solutions were analyzed using a plate-type spectrophotometer (Spectramax 190; Molecular devices, Molecular Devices Corporation, California, USA) and a 96-well UV black plate (Costar). The plot of the cumulative amount of the compound (Q) permeated through the membrane of effective surface area (A) versus time (t) was constructed and the apparent permeability coefficient (Papp) was calculated by the equation:Papp = J/C0(1) where J is the flux through the membrane derived as a slope of the permeation plot (J = dQ/(A·dt)), and C0 is the UMF concentration in the donor solution. Papp values were taken as an average of at least 3 or more experiments.

CCOC(=O)c1c(CSc2ccccc2)n(C)c2cc(Br)c(O)c(CN(C)C)c12 [UMF, 6-bromo-4-dimethylaminomethyl-5-hydroxy-1-methyl-2-phenylthiomethyl indole-3-carboxylic acid ethyl ester]
Higher solubilizing potential of F-127 (Km/w) towards UMF base at pH 7.4 vs UMF∙HCl∙H2O at pH 2.0 [1]: approximately 5.4 fold
logKm/w ([1]; UMF-buffer pH 7.4-pluronic F-127 system): 3.88
Solid phase after dissolution (PXRD) ([2]; acidic buffer (pH 2.0)): transformed into the apparently more stable hydrochloride monohydrate
Solid phase after dissolution (PXRD) ([2]; all the systems with buffer pH 7.4): No transformations
Permeability coefficient in pure buffer pH 7.4 greater than in pH 2.0 [3]: 2.1 fold
Permeability increase by EtOH in buffer pH 7.4 ([3]; 10% EtOH): 1.4 fold
Permeability increase by EtOH in buffer pH 7.4 ([3]; 20% EtOH): 1.2 fold
Permeability reduction by 4.0% F-127 vs pure buffer ([3]; buffer pH 7.4): 2.35 fold
Papp in 20% EtOH + 1.5% F-127 lower than in buffer pH 7.4 + 1.5% F-127 ([3]; pH 7.4): 5.1 fold
Papp in 20% EtOH + 1.5% F-127 lower than in buffer pH 7.4 +20% EtOH ([3]; pH 7.4): 10.8 fold
Papp in 20% EtOH + 1.5% F-127 lower than in pure buffer pH 7.4 ([3]; pH 7.4): 9.1 fold
